The target of test [1] is CaCiv1 (Candida albicans, UniProt A0A1D8PH53). The test can be described thus: Test of inhibition of the activity of CIV-CDK (CIV1). Type of test: biochemical. The procedure: (Details of the Excipient: Lactose, Talc, Starch, Magnesium Stearate.) Pharmacological Part: 1) Test of Inhibition of the Activity of CIV-CDK (CIV1) a) PREPARATION of the Reagents […]
967 μl Buffer [50 mM Tris-HCl−0.1 M NaCl−pH 7.5]
−0.1% BSA+30 μl Cdk2 (1 mg/ml)
(2)-3× Inhibitor Cocktail
Prepare a 3× range of inhibitor in 3% of DMSO-Buffer
[50 mM Tris-HCl−0.1 M NaCl−pH 7.5]−0.1% BSA
ATP−pH 7.5+1 tablet of protease inhibitors (Complete EDTA Free™) per 5 ml of Buffer b) Carrying Out of the Test
1)—mix 30 μl of the 3× enzyme cocktail (1) with 30 μl of the 3× inhibitor cocktail (2) 2)—add 30 μl of the 3×ATP cocktail (3) (start of the reaction)
3)—incubate for 30 min at room temperature (20 to 25° C.)
4)—stop the reaction by adding 250 μl of Buffer [50 mM Tris-HCl−0.1 M NaCl−pH 7.5]−0.1% BSA−25 mM EDTA 5)—distribute 100 μl into a plate coated with antibodies directed against the reaction substrate 6)—incubate for 60 min at room temperature, stirring gently and then wash 3 times with 300 μl Buffer [50 mM Tris-HCl−0.1 M NaCl−pH 7.5]−0.05% Tween20
9)—Place the plate to dry for 30 min at 37° C.
10)—Place for counting in a scintillation counter c) Results Obtained, Expressed as IC50 Expressed in Micromolar

The test system of test [2] is fungus. In words: Minimum inhibitory concentration (MIC), NCCLS M27-A broth dilution antifungal susceptibility test. Type of test: cell-based. The conditions noted are these: RPMI 1640 medium, 37° C., visual reading, inhibition of at least 80% of growth; test strain not named. The source says:
A constant number of cells of a given strain are exposed to increasing concentrations of an antifungal, under conditions taken from NCCLS (National Committee for Clinical Laboratory Standards, 1997 [reference method for broth dilution antifungal susceptibility testing of yeasts]. Approved Standard M27-A. NCCLS, Villanova, Pa.); the minimum concentration with which a visible reduction in the cloudiness from cell growth was observed (at least 80% relative to a control with no product) is the minimum inhibitory concentration (MIC) of the antifungal for the test strain.
Supplement the L-glutamine-free RPMI 1640 medium (liquid) with L-glutamine (0.3 g/l or 10.5 ml of a solution at 200 mM) and buffer with 34.54 g/l (0.165 M) of M morpholinepropanesulfonic acid (MOPS). Sterilize the medium by filtration. Distribute 100 μl of RPMI medium into each well of a 96-well microplate. Distribute the appropriate volume of the antifungal solution in the first column of the microplate and adjust with medium to 200 μl. Carry out a 2-fold serial dilution in order to establish a range of 11 concentrations in each lane of the microplate. The 12th well of each row will serve as a control for growth. Prepare the cellular suspension from a (liquid or agar) culture or from a frozen vial, dilute it in RPMI medium in order to obtain a cellular suspension at 5×10^3-2×10^4 cells/ml. Distribute 100 μl of the cellular suspension into the microplate. The MIC for all the Candida species was read after 24-48 h, for Cryptococcus and Aspergillus after 48-72 h of incubation at 37° C. in a normal atmosphere. The MIC is read by visual readings by determining the well which contains the lowest dose of antifungal which causes an inhibition of at least 80% of the growth of the fungus.

[3] abbreviates: CaCiv1 with Cdk2, [33P]ATP, 30 min at room temperature, scintillation counting, read-out: IC50.

pIC50: −log10 of the molar value. ≈ marks a conversion by molar mass, not a printed value. Counter-ions that a name gives are not always drawn. Like-named read-outs stand apart in the source and are kept apart here.

The pIC50 is −log10 of the IC50, conventionally taken in molar units. As usually defined, the MIC is the least concentration at which growth counts as inhibited.

Chain of CaCiv1 (A0A1D8PH53 entry or part of it): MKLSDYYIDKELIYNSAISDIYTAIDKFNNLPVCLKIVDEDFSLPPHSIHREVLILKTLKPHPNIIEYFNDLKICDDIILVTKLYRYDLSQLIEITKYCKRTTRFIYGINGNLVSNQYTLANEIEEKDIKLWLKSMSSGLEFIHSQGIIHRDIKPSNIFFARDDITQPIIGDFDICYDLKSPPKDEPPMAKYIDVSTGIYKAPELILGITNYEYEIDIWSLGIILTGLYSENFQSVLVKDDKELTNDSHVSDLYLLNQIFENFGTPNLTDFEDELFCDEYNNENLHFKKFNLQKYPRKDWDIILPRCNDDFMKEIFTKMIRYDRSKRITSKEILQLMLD

The compound `CCOC(=O)c1ccc(Nc2[nH]c(N[C@H]3CC[C@H](N)CC3)nc3ncnc2-3)cc1` [Example 1, Ethyl trans-4-[[2-[(4-aminocyclohexyl)amino]-1H-purin-6-yl]amino]benzoate dihydrochloride] gave a pIC50 in test [1] of 6.30.
On to `N[C@H]1CC[C@H](Nc2nc(Nc3ccccc3)c3nc[nH]c3n2)CC1` [Example 11, Trans-N2-(4-aminocyclohexyl)-N6-[4-phenyl]-1H-purine-2,6-diamine dihydrochloride], for which the pIC50 in test [1] (setting [3]) is 5.60.
The same measure, in the same setting: the value for `CCOC(=O)c1cccc(Nc2nc(N[C@H]3CC[C@H](N)CC3)nc3[nH]cnc23)c1` [Example 14, Ethyl trans-3-[[2-[(4-aminocyclohexyl)amino]-9H-purin-6-yl]amino]benzoate] was 5.70.
In test [2], `N[C@H]1CC[C@H](Nc2nc(Nc3ccc(Cl)cc3)c3nc[nH]c3n2)CC1` [Example 15, Trans-N2-(4-aminocyclohexyl)-N6-(4-chlorophenyl)-9H-purine-2,6-diamine] displayed an MIC of 100 µg/mL (≈ 279 µM).
For `N[C@H]1CC[C@H](Nc2nc(Nc3ccc(Cl)c(Cl)c3)c3nc[nH]c3n2)CC1` [Example 16, trans-N2-(4-aminocyclohexyl)-N6-(3,4-dichlorophenyl)-9H-purine-2,6-diamine], in test [1] (setting [3]), the negative-log IC50 (pIC50) is 5.54. In test [2], this compound returned an MIC of 25 µg/mL (≈ 63.7 µM).
The matching figures for `CCCCOC(=O)c1ccc(Nc2nc(N[C@H]3CC[C@H](N)CC3)nc3[nH]cnc23)cc1` [Example 17, Butyl trans-4-[[2-[(4-aminocyclohexyl)amino]-9H-purin-6-yl]amino]benzoate]: 5.25 and 12.5 µg/mL (≈ 29.5 µM).
As to `CCN(CC)CCOC(=O)c1ccc(Nc2nc(N[C@H]3CC[C@H](N)CC3)nc3[nH]cnc23)cc1` [Example 18, 2-(diethylamino)ethyl trans-4-[[2-[(4-aminocyclohexyl)amino]-9H-purin-6-yl]amino]benzoate], the pIC50 in test [1] (setting [3]) was 5.37.
As for `N[C@H]1CC[C@H](Nc2nc(Nc3ccc(C(=O)Nc4ccccc4)cc3)c3nc[nH]c3n2)CC1` [Example 19, Trans-4-[[2-[(4-aminocyclohexyl)amino]-9H-purin-6-yl]amino]-N-phenylbenzamide], the pIC50 in test [1] (setting [3]) is 5.42.

Source of the values: patent US20080090849A1, “NOVEL PURINE DERIVATIVES, PREPARATION METHOD AND USE AS MEDICINES” (AVENTIS PHARMA S.A., priority 2000, published 2008).
